Source: US20090062388A1, “Use of acetyl L-carnitine for the preparation of a medication for the preventive therapy for pain” (Sigma-Tau Industrie Farmaceutiche Riunite S.p.A., priority 2001, published 2009)

Assays:
[1] = system: Male Swiss Webster mice; assay: Hyperalgesia induced by morphine withdrawal syndrome (hot plate)
[2] = system: Male Swiss Webster mice; assay: Rota-rod test (motor coordination); format: in vivo
Description: The rota rod test was carried out by means of an apparatus consisting of a platform and a 3 cm-diameter rotating rod (16-20 r.p.m.) with a non-slipping surface.
The integrity of the animals' motor coordination was determined according to the capacity of the mice to keep their balance on the rotating rod.
At various intervals after the treatment, the parameter considered was the number of falls of the animal within a 30 second-observation (Vaught et al., Neuropharmacol., 24: 211, 1985).

[3] = system: Male Swiss Webster mice; assay: Hot-plate test (thermal stimulus), licking latency; format: in vivo
Description: The first experiment was the hot-plate test.
Male Swiss Webster mice weighing between 22 and 30 g were used.
The test was carried out according to O'Callaghan and Holtzman in J. Pharmacol. Exp. Ther. 197: 533-537, 1976.
According to this test, a stainless steel container is to be placed in a bain-marie at a temperature of 52.5° C.
The mouse was removed from the hot plate immediately upon the first sign of painful stimulus. The maximum latency time registered on the hot plate was 45 seconds.
The values of analgesia were determined at 15 minute-intervals.

In the case of CC(=O)O[C@H](CC(=O)[O-])C[N+](C)(C)C [Acetyl L-carnitine, acetyl L-carnitine], the “reversal of hyperalgesia induced by morphine withdrawal syndrome” value ([1]; one single administration, 5 hours and 30 minutes from replacement of morphine with water (FIG. 5bis)) is reported as “not after one single administration”, the “reversal of hyperalgesia induced by morphine withdrawal syndrome” value ([1]; repeated treatment 100 mg/kg BID, IP or SC for 7 days (FIG. 5)) is reported as “capable of reverting the hyperalgesia” and the “Motor coordination (rota-rod)” value ([2]; 100 mg/kg BID, SC or IP for 7 and 14 days) is reported as “not different from motor coordination of the control mice”. The “ROTA-ROD No. of falls in 30 seconds” value ([2]; 7-day sub-chronic treatment IP 100 mg/kg BID, 15 min after treatment) was 2.2 ± 0.4, the “ROTA-ROD No. of falls in 30 seconds” value ([2]; 7-day sub-chronic treatment IP 100 mg/kg BID, 30 min after treatment) was 1.5 ± 0.3 and the “ROTA-ROD No. of falls in 30 seconds” value ([2]; 7-day sub-chronic treatment IP 100 mg/kg BID, 45 min after treatment) was 1.1 ± 0.3. The “ROTA-ROD No. of falls in 30 seconds” value ([2]; 7-day sub-chronic treatment IP 100 mg/kg BID, before treatment) was 3.6 ± 0.5, the “ROTA-ROD No. of falls in 30 seconds” value ([2]; 14-day sub-chronic treatment IP 100 mg/kg BID, 15 min after treatment) was 2.9 ± 0.3 and the “ROTA-ROD No. of falls in 30 seconds” value ([2]; 14-day sub-chronic treatment IP 100 mg/kg BID, 30 min after treatment) was 1.7 ± 0.4. For the same molecule, the “ROTA-ROD No. of falls in 30 seconds” value ([2]; 14-day sub-chronic treatment IP 100 mg/kg BID, 45 min after treatment) was 1.0 ± 0.3, the “ROTA-ROD No. of falls in 30 seconds” value ([2]; 14-day sub-chronic treatment IP 100 mg/kg BID, before treatment) was 3.9 ± 0.5 and the “Hot plate Licking latency” value ([3]; 3 mg/ml in drinking water, after 7 days treatment) was 17.8 ± 2.3 s. The “Hot plate Licking latency” value ([3]; 3 mg/ml in drinking water, after 14 days treatment) was 18.8 ± 2.5 s, the “Hot plate Licking latency” value ([3]; 3 mg/ml in drinking water, before treatment) was 13.8 ± 0.8 s and the “analgesic effect in hot-plate test” value ([3]; 30 mg/kg SC, acute and 30 mg/kg BID SC for 7 days) was “had no analgesic effect”. For the same molecule, the “antinociceptive effect in hot-plate test” value ([3]; 100 mg/kg BID SC for 7 days) was “statistically significant antinociceptive effect”, the “antinociceptive effect in hot-plate test” value ([3]; 100 mg/kg BID administered for 14 days) was “the test failed to be statistically significant” and the “pain threshold in hot-plate test” value ([3]; 1-8 hours from one single administration of 100 mg/kg SC) was “did not affect the pain threshold”. The “Hot plate Licking latency” value ([3]; 7-day sub-chronic treatment SC 30 mg/kg BID, 15 min after treatment) was 16.3 ± 2.1 s, the “Hot plate Licking latency” value ([3]; 7-day sub-chronic treatment SC 30 mg/kg BID, 30 min after treatment) was 17.3 ± 1.9 s and the “Hot plate Licking latency” value ([3]; 7-day sub-chronic treatment SC 30 mg/kg BID, 45 min after treatment) was 15.2 ± 1.5 s. For the same molecule, the “Hot plate Licking latency” value ([3]; 7-day sub-chronic treatment SC 30 mg/kg BID, before treatment) was 15.8 ± 1.3 s, the “Hot plate Licking latency” value ([3]; 7-day sub-chronic treatment SC 100 mg/kg BID, 15 min after treatment) was 22.1 ± 1.8^ sec and the “Hot plate Licking latency” value ([3]; 7-day sub-chronic treatment SC 100 mg/kg BID, 30 min after treatment) was 22.5 ± 1.9^ sec. For the same molecule, the “Hot plate Licking latency” value ([3]; 7-day sub-chronic treatment SC 100 mg/kg BID, 45 min after treatment) was 22.2 ± 1.7^ sec, the “Hot plate Licking latency” value ([3]; 7-day sub-chronic treatment SC 100 mg/kg BID, before treatment) was 21.8 ± 1.1^ sec and the “Hot plate Licking latency” value ([3]; 14-day sub-chronic treatment SC 100 mg/kg BID, 15 min after treatment) was 22.1 ± 2.7 s. The “Hot plate Licking latency” value ([3]; 14-day sub-chronic treatment SC 100 mg/kg BID, 30 min after treatment) was 22.5 ± 2.1 s, the “Hot plate Licking latency” value ([3]; 14-day sub-chronic treatment SC 100 mg/kg BID, 45 min after treatment) was 23.4 ± 2.9 s and the “Hot plate Licking latency” value ([3]; 14-day sub-chronic treatment SC 100 mg/kg BID, before treatment) was 22.4 ± 1.4 s. The “Hot plate Licking latency” value ([3]; 7 days after the end of the 14-day-treatment 100 mg/kg BID, 15 min after treatment) was 21.1 ± 1.9^ sec, the “Hot plate Licking latency” value ([3]; 7 days after the end of the 14-day-treatment 100 mg/kg BID, 30 min after treatment) was 18.5 ± 1.8 s and the “Hot plate Licking latency” value ([3]; 7 days after the end of the 14-day-treatment 100 mg/kg BID, 45 min after treatment) was 19.0 ± 2.3 s. For the same molecule, the “Hot plate Licking latency” value ([3]; 7 days after the end of the 14-day-treatment 100 mg/kg BID, before treatment) was 19.2 ± 1.6^ sec, the “antinociceptive action in hot-plate test” value ([3]; 7 days after the last 14 day-series of injections, 100 mg/kg BID SC) was “persisted even 7 days after the last 14 day-series of injections” and the “Hot plate Licking latency” value ([3]; Acute SC treatment 100 mg/kg, 15 min after treatment) was 17.3 ± 1.7 s. The “Hot plate Licking latency” value ([3]; Acute SC treatment 100 mg/kg, 30 min after treatment) was 16.8 ± 1.2 s, the “Hot plate Licking latency” value ([3]; Acute SC treatment 100 mg/kg, 45 min after treatment) was 15.2 ± 1.7 s and the “Hot plate Licking latency” value ([3]; Acute SC treatment 100 mg/kg, before treatment) was 13.9 ± 0.7 s. For the same molecule, the “Hot plate Licking latency” value ([3]; SC acute treatment 30 mg/kg, 15 min after treatment) was 15.8 ± 1.8 s, the “Hot plate Licking latency” value ([3]; SC acute treatment 30 mg/kg, 30 min after treatment) was 16.5 ± 2.0 s and the “Hot plate Licking latency” value ([3]; SC acute treatment 30 mg/kg, 45 min after treatment) was 15.0 ± 2.1 s. For the same molecule, the “Hot plate Licking latency” value ([3]; SC acute treatment 30 mg/kg, before treatment) was 14.2 ± 0.9 s, the “protective effect in hot-plate test” value ([3]; acute SC administration 100 mg/kg) was “did not exert any protective effect” and the “Hot plate Licking latency” value ([3]; single SC treatment 100 mg/kg, 1 h after treatment) was 15.8 ± 2.2 s. The “Hot plate Licking latency” value ([3]; single SC treatment 100 mg/kg, 2 h after treatment) was 14.7 ± 1.5 s, the “Hot plate Licking latency” value ([3]; single SC treatment 100 mg/kg, 3 h after treatment) was 15.6 ± 1.9 s and the “Hot plate Licking latency” value ([3]; single SC treatment 100 mg/kg, 4 h after treatment) was 14.1 ± 2.0 s. The “Hot plate Licking latency” value ([3]; single SC treatment 100 mg/kg, 6 h after treatment) was 15.2 ± 1.9 s and the “Hot plate Licking latency” value ([3]; single SC treatment 100 mg/kg, 8 h after treatment) was 14.9 ± 1.6 s.
